According to US20050009132A1, “Culture medium for detecting and/or discriminating enterococcus and method therefor” (priority 2001, published 2005):

Tested on: Gram-positive bacteria
Experiment: Addition of Crystal Violet to culture medium, growth inhibition of Gram-positive bacteria
Format: cell-based
Settings: concentration as low as

CN(C)c1ccc(C(=C2C=CC(=[N+](C)C)C=C2)c2ccc(N(C)C)cc2)cc1 [Crystal Violet]
Crystal Violet concentration at which inhibition of the growth of a large quantity of Gram-positive bacteria is observed: 0.1 mg/L
